Laboratory results as given in ChEMBL document CHEMBL1208686, “Synthesis and antileishmanial activity of piperoyl-amino acid conjugates” (Eur J Med Chem, 2010).
pIC50: −log10 of the molar value.

Columns and labels:
[1] = tested on: Leishmania donovani; experiment: Antileishmanial activity against Leishmania donovani promastigotes after 48 hrs by MTT assay; format: functional, organism-based
[2] = tested on: PBMC; experiment: Cytotoxicity against human PBMC at 2 times IC50 concentration after 48 hrs by MTT assay; format: cell-based
[3] = tested on: PBMC; experiment: Cytotoxicity against human PBMC at IC50 concentration after 48 hrs by MTT assay; format: cell-based
[4] = tested on: Leishmania donovani; experiment: Antileishmanial activity against Leishmania donovani amastigotes after 48 hrs by MTT assay; format: functional, organism-based
[5] = tested on: Leishmania donovani; experiment: Antileishmanial activity against Leishmania donovani infected in golden Syrian hamsters assessed as reduction of spleen weight at 250 mg/kg, ip administered 20 days after infection for 10 days relative to control; format: functional; parameters: scale not given: the % may be the effect or the level left; conditions: route intraperitoneal
[6] = tested on: Leishmania donovani; experiment: Antileishmanial activity against Leishmania donovani infected in golden Syrian hamsters assessed as reduction of spleen weight at 250 mg/kg, ip administered 20 days after infection for 10 days (reference value: 503 +/- 34 mg); format: functional; conditions: route intraperitoneal
[7] = tested on: Leishmania donovani; experiment: Antileishmanial activity against Leishmania donovani infected in golden Syrian hamsters assessed as reduction of spleen parasitic burden at 250 mg/kg, ip administered 20 days after infection for 10 days relative to control; format: functional; parameters: scale not given: the % may be the effect or the level left; conditions: route intraperitoneal
[8] = tested on: Leishmania donovani; experiment: Antileishmanial activity against Leishmania donovani infected in golden Syrian hamsters assessed as reduction of spleen weight at 12.5 mg/kg, po administered 20 days after infection for 10 days (reference value: 503 +/- 34 mg); format: functional
[9] = tested on: Leishmania donovani; experiment: Antileishmanial activity against Leishmania donovani infected in golden Syrian hamsters assessed as reduction of spleen parasitic burden at 12.5 mg/kg, po administered 20 days after infection for 10 days relative to control; format: functional; parameters: scale not given: the % may be the effect or the level left
[10] = tested on: Leishmania donovani; experiment: Antileishmanial activity against Leishmania donovani infected in golden Syrian hamsters assessed as reduction of spleen weight at 12.5 mg/kg, po administered 20 days after infection for 10 days relative to control; format: functional; parameters: scale not given: the % may be the effect or the level left

| SMILES | pIC50 [1] | Activity [2] [%] | Activity [3] [%] | pIC50 [4] | Activity [5] [%] | Activity [6] [mg] | Activity [7] [%] | Activity [8] [mg] | Activity [9] [%] | Activity [10] [%] |
| --- | --- | --- | --- | --- | --- | --- | --- | --- | --- | --- |
| COC(=O)[C@@H](N)Cc1ccc(O)cc1 [TYROSINE METHYL ESTER] | 2.68 | 5 | 0.3 | 2.86 | – | – | – | – | – | – |
| O=C(/C=C/C=C/c1ccc2c(c1)OCO2)NC(Cc1ccccc1)C(=O)O (stereo unspecified) | 3.03 | 8.5 | 1.2 | 3.59 | – | – | – | – | – | – |
| COC(=O)C(NC(=O)CCCCc1ccc2c(c1)OCO2)C(C)C (stereo unspecified) | 3.14 | 7.7 | 4.5 | 3.62 | – | – | – | – | – | – |
| COC(=O)C(CCSC)NC(=O)/C=C/C=C/c1ccc2c(c1)OCO2 (stereo unspecified) | 3.08 | 7.5 | 4 | 3.77 | – | – | – | – | – | – |
| COC(=O)C(Cc1ccc(O)cc1)NC(=O)/C=C/C=C/c1ccc2c(c1)OCO2 (stereo unspecified) | 3.10 | 6 | 3.5 | 3.68 | – | – | – | – | – | – |
| COC(=O)[C@@H](N)C(C)C | 2.63 | 6 | 4 | 2.75 | – | – | – | – | – | – |
| COC(=O)C(Cc1ccccc1)NC(=O)/C=C/C=C/c1ccc2c(c1)OCO2 (stereo unspecified) | 3.08 | 7 | 4 | 3.71 | 30 | 353 | 35 | – | – | – |
| O=C(/C=C/C=C/c1ccc2c(c1)OCO2)NC(Cc1c[nH]c2ccccc12)C(=O)O (stereo unspecified) | 2.99 | 10 | 3.6 | 3.63 | – | – | – | – | – | – |
| COC(=O)C(Cc1ccc(O)cc1)NC(=O)CCCCc1ccc2c(c1)OCO2 (stereo unspecified) | 3.27 | 7.6 | 5 | 3.69 | – | – | – | – | – | – |
| O=C(O)/C=C/C=C/c1ccc2c(c1)OCO2 [PIPERIC ACID] | 2.76 | 8 | 4.5 | 3.40 | – | – | – | – | – | – |
| COC(=O)C(Cc1c[nH]c2ccccc12)NC(=O)/C=C/C=C/c1ccc2c(c1)OCO2 (stereo unspecified) | 3.07 | 5.2 | 3 | 3.92 | – | – | – | – | – | – |
| COC(=O)C(NC(=O)/C=C/C=C/c1ccc2c(c1)OCO2)C(C)C (stereo unspecified) | 3.06 | 3.8 | 3 | 4.12 | – | 516 | 24 | – | – | – |
| COC(=O)C(CCSC)NC(=O)CCCCc1ccc2c(c1)OCO2 (stereo unspecified) | 3.22 | 5 | 3 | 3.66 | – | – | – | – | – | – |
| COC(=O)[C@@H](N)Cc1c[nH]c2ccccc12 [TRYPTOPHAN METHYL ESTER] | 2.86 | 5.3 | 1.8 | 2.85 | – | – | – | – | – | – |
| CC(C)C(NC(=O)/C=C/C=C/c1ccc2c(c1)OCO2)C(=O)O (stereo unspecified) | 2.99 | 9 | 5.5 | 3.51 | – | – | – | – | – | – |
| COC(=O)C(Cc1c[nH]c2ccccc12)NC(=O)CCCCc1ccc2c(c1)OCO2 (stereo unspecified) | 3.33 | 5 | 2.5 | 3.75 | – | – | – | – | – | – |
| O=C(/C=C/C=C/c1ccc2c(c1)OCO2)NC(Cc1ccc(O)cc1)C(=O)O (stereo unspecified) | 3.12 | 6 | 4 | 3.60 | – | – | – | – | – | – |
| CCCCCCCCCCCCCCCCOP(=O)([O-])OCC[N+](C)(C)C [MILTEFOSINE] | 4.48 | 35 | 29 | 4.74 | – | – | – | 287 | 87 | 43 |
| O=C(/C=C/C=C/c1ccc2c(c1)OCO2)N1CCCCC1 [PIPERINE] | 2.59 | 10 | 7 | 3.12 | – | – | – | – | – | – |
| COC(=O)[C@@H](N)CCSC | 2.71 | 7.3 | 1.5 | 2.72 | – | – | – | – | – | – |
| COC(=O)C(Cc1ccccc1)NC(=O)CCCCc1ccc2c(c1)OCO2 (stereo unspecified) | 3.17 | 7.2 | 5.5 | 3.67 | – | – | – | – | – | – |
| CSCCC(NC(=O)/C=C/C=C/c1ccc2c(c1)OCO2)C(=O)O (stereo unspecified) | 2.88 | 7.7 | 1.8 | 3.63 | – | – | – | – | – | – |
